Laboratory results from US10603357B2, “Therapeutic TREM-1 peptides” (Universite de Lorraine, priority 2004, dated 2020).

Tested on: human monocytes
Assay: in vitro stimulation of monocytes: TNF-α, IL-1β and sTREM-1 release
Format: cell-based
Conditions: P5 or control peptide 10 to 100 ng/mL, rIL-10 500 U/mL
Experimental: For cell activation, primary monocytes were cultured in 24-well flat-bottom tissue culture plates in the presence of LPS (1 μg/mL). In some experiments this stimulus was provided in combination with P5 (10 to 100 ng/mL), control peptide (10 to 100 ng/mL) or rIL-10 (500 U/mL). To activate monocytes through TREM-1, an agonist anti-TREM-1 mAb (10 μg/mL) was added as indicated. Cell-free supernatants were analysed for production of TNF-α, IL-1β. and sTREM-1 by ELISA or immunodot. All experiments were performed in triplicate and data are expressed as means (SEM). • a: Media • b: P5 10 ng/mL • c: Anti-TREM-1 • d: LPS • e: LPS+Anti-TREM-1 • f: LPS+P5 10 ng/mL • g: LPS+P5 50 ng/mL • h: LPS+P5 100 ng/mL • i: LPS+IL10
Ten mL of peripheral blood samples were collected on EDTA-K from 5 healthy volunteer donors originating from laboratory staff. After dilution in RPMI (Life Technologies, Grand Island, N.Y.) v/v, blood was centrifuged for 30 min at room temperature over a Ficoll gradient (Amersham Pharmacia, Uppsala, Sweden) to isolate PBMC. The cells recovered above the gradient were washed and counted. In order to deplete the suspensions of lymphocytes, cells were then plated in 24-well flat-bottom tissue culture plates (Corning, Corning, N.Y.) at a concentration of 5×10^6/mL and allowed to adhere during 2 hours at 37° C. The resulting lymphocyte suspension was discarded and the adhering monocytic cells were maintained in a 5% CO2 incubator at 37° C. in complete medium (RPMI 1640, 0.1 mM sodium pyruvate, […], 50 μg/mL Streptomycin; Life Technologies) supplemented with 10% FCS (Invitrogen, Cergy, France).
For activation, monocytes were cultured in the presence of E. coli LPS (0111:B4, 1 μg/mL, Sigma-Aldrich, La Verpillière, France). Cell viability was assessed by trypan blue exclusion and by measuring lactate dehydrogenase release. In some experiments, this stimulus was given in combination with TNF-α (5 to 100 ng/mL, R&D Systems, Lille, France), IL-1β (5 to 100 ng/mL, R&D Systems), rIFN-γ (up to 100 U/mL, R&D Systems), rIL-10 (500 U/ml, R&D Systems) or up to 100 ng/mL of P5 or control peptide.
In order to activate monocytes through TREM-1, an anti-TREM-1 agonist monoclonal antibody (R&D Systems) was added as follows: flat-bottom plates were precoated with 10 μg/mL anti-TREM-1 per well. After thorough washing in phosphate buffered saline (PBS), the monocyte suspensions were added at a similar concentration as above. Some experiments were performed in the presence of protease inhibitors (PMSF and Protease Cocktail Inhibitor; Invitrogen). Cell-free supernatants were assayed for the production of TNF-α and IL-1β by ELISA according to the recommendations of the manufacturer (BD Biosciences, San Diego, USA). To address the effect of P5 on NF-κB activity in monocytes, an ELISA-based assay was performed (BD Mercury™ Transfactor Kit, BD Biosciences). Monocytes were cultured for 24 hours in the presence of E. coli LPS (O111:B4, 1 μg/mL), and/or an agonist anti-TREM-1 monoclonal antibody (10 μg/mL), and/or P5 (100 ng/mL). Whole-cell extracts were then prepared and levels of NF-κB p50 and p65 were determined according to the recommendations of the manufacturer. All experiments were performed in triplicate and data are expressed as means (SEM). Identification and Quantitation of sTREM-1 Release
Primary monocytes suspensions were cultured as described above. The cells were treated with E. coli LPS (0111:B4, 1 μg/mL) for 24 hours at 37° C. Cell-conditioned medium was submitted to Western-blotting using an anti-TREM-1 monoclonal antibody (R&D Systems) in order to confirm the presence of 27 kDa material recognized by anti-TREM-1. Soluble TREM-1 levels were measured by assessing the optical intensity of bands on immunodots by means of a reflectance scanner and the Quantity One Quantitation Software (Bio-Rad, Cergy, France) as reported elsewhere (18). […]

LQVTDSGLYRCVIYHPP [P5]
TNF-α and IL-1β production (release of inflammatory cytokines) in monocyte supernatant (LPS 1 μg/mL or LPS + anti-TREM-1 mAb): reduced, in a concentration-dependent manner | release of sTREM-1 from monocytes cultured with LPS (LPS 1 μg/mL): increased
